Data taken from ChEMBL document CHEMBL6115028, “An Amazing 30-Year Journey around the DABO Family: A Medicinal Chemistry Lesson on a Versatile Class of Non-nucleoside HIV-1 Reverse Transcriptase Inhibitors” (J Med Chem, 2025).

Experiments:
[1] = test system: Human immunodeficiency virus 1; assay: Antiviral activity against wild type HIV-1 NL4-3 infected in human MT4 cells assessed as reduction in viral replication; format: functional, organism-based; conditions: Human immunodeficiency virus 1, NL4-3, MT4
[2] = test system: Human immunodeficiency virus 1; assay: Antiviral activity against HIV-1 NL4-3 harboring infected Y181C mutant infected in human MT4 cells assessed as reduction in viral replication; format: functional, organism-based; conditions: Human immunodeficiency virus 1, NL4-3, MT4
[3] = Cytotoxicity against African green monkey Vero cells assessed as reduction in cell viability incubated for 72 hrs by MTT assay; format: toxicity, cell-based; conditions: chlorocebus sabaeus
[4] = test system: Human immunodeficiency virus 1; assay: Antiviral activity against HIV-1 harboring protease V82F mutant infected in human C8166 cells assessed as inhibition of viral replication measured for 72 hrs by spectrophotometric MTT assay; format: functional, organism-based; conditions: Human immunodeficiency virus 1, C8166, 72 h
[5] = Cytotoxicity against african green monkey Vero cells assessed as reduction in cell viability measured after 72 hrs by MTT assay; format: toxicity, cell-based; conditions: chlorocebus sabaeus
[6] = Selectivity index, ratio of CC50 for cytotoxicity against human MT2 cells to EC50 for antiviral activity against HIV-1 IIIB infected in human MT2 cells; format: toxicity, cell-based; conditions: read-out: Ratio CC50/EC50
[7] = test system: Human immunodeficiency virus 1; assay: Antiviral activity against HIV-1 IIIB infected in human C8166 cells assessed as reduction in virus -induced cytopathic effect measured after 48 hrs by CellTiter-Glo Luminescent cell viability assay; format: functional, organism-based; conditions: Human immunodeficiency virus 1, IIIB, C8166, 48 h
C8166 = assay: Cytotoxicity against human C8166 cells assessed as reduction in cell viability; format: functional
[8] = test system: Human immunodeficiency virus 1; assay: Antiviral activity against wild-type HIV-1 IIIB infected in human MT4 cells assessed as reduction in virus-induced cytopathic effect incubated for 5 days by MTT assay; format: functional, organism-based; conditions: Human immunodeficiency virus 1, IIIB, MT4, 120 h
[9] = test system: Human immunodeficiency virus 1; assay: Antiviral activity against HIV-1 IIIB infected in human C8166 cells; format: functional, organism-based; conditions: Human immunodeficiency virus 1, IIIB
MT4 [10] = assay: Cytotoxicity against human MT4 cells assessed as reduction in cell growth incubated for 3 days by CellTiter-Glo luminescent assay; format: functional; conditions: MT4, 72 h, time 3 day
[11] = test system: Human immunodeficiency virus 2; assay: Antiviral activity against HIV-2 ROD infected in human MT4 cells assessed as virus-induced cytopathic effect incubated for 5 days by MTT assay; format: functional, organism-based; conditions: Human immunodeficiency virus 2, ROD, MT4, 120 h
MT4 [12] = assay: Cytotoxicity against human MT4 cells assessed as reduction in cell growth after 5 days by MTT assay; format: functional; conditions: MT4, 120 h, time 5 day
[13] = Selectivity index, ratio of CC50 for human MT4 cells to EC50 for antiviral activity against HIV1 infected in human MT4 cells; format: toxicity, cell-based; conditions: read-out: Ratio CC50/EC50
MT4 [14] = assay: Cytotoxicity against human MT4 cells; format: functional
[15] = test system: Human immunodeficiency virus 1; assay: Antiviral activity against HIV-1 NL4-3 infected in human MT2 cells assessed as reduction in viral replication assessed as inhibition of viral growth incubated for 72 hrs by ELISA; format: functional, organism-based; conditions: Human immunodeficiency virus 1, NL4-3, MT2, 72 h
[16] = test system: Human immunodeficiency virus 1; assay: Antiviral activity against wild type HIV-1 IIIB harboring Y181C/K103N double mutant infected in human MT4 cells assessed as reduction in cytopathic effect measured after 4 days by MTT assay; format: functional, organism-based; conditions: Human immunodeficiency virus 1, IIIB, MT4, 96 h
MT4 [17] = assay: Cytotoxicity against human MT4 cells assessed as reduction in cell viability incubated for 4 days by MTT assay; format: functional; conditions: MT4, 96 h, time 4 day
[18] = test system: Human immunodeficiency virus 1; assay: Antiviral activity against […] infected in human MT4 cells assessed as reduction in cytopathic effect measured after 4 days by MTT assay; format: functional, organism-based; conditions: Human immunodeficiency virus 1, IIIB, MT4, 96 h
[19] = read-out: ED50 (the source's name)

COC(=O)[C@H](C)NP(=O)(Oc1ccccc1)Oc1nc(N(C)C)nc(C(C)c2c(F)cccc2F)c1C (stereo partly specified)
EC50 ([1]; read-out: EC50): 0.007 µM
EC50 [2]: 1.2 µM

CSCSc1nc(Cc2c(F)cccc2Cl)cc(=O)[nH]1
CC50 at 72 h [3]: 55.3 µM
EC50 [4]: 0.4 µM

Cc1c(OP(=O)(N[C@@H](C)C(=O)OCc2ccccc2)Oc2ccccc2)nc(N(C)C)nc1C(C)c1c(F)cccc1F (stereo partly specified)
EC50 ([1]; read-out: EC50): 0.01 µM
EC50 [2]: 1.1 µM

CC(C)CCSc1nc(Cc2c(F)cccc2F)cc(=O)[nH]1
CC50 at 72 h [5]: > 200 µM
selectivity ratio [6]: > 4000
EC50 [7]: 0.05 µM
CC50 (C8166): > 200 µM

CCCCNc1nc(C(C)c2c(F)cccc2F)c(C)c(=O)[nH]1 (stereo unspecified)
EC50 [8]: 0.04 µM

CSCSc1nc(Cc2c(Cl)cccc2Cl)cc(=O)[nH]1
CC50 at 72 h [3]: 48.1 µM
EC50 [4]: 1.3 µM

Cc1cc(C)cc(OCCSc2nc(Cc3ccccc3)cc(=O)[nH]2)c1
CC50 at 72 h [3]: 72.9 µM
EC50 [4]: 1.3 µM

COc1ccc(C(=O)CSc2nc(Cc3ccccc3)c(C)c(=O)[nH]2)cc1
EC50 [9]: 0.37 µM
CC50 (MT4 [10]): > 290 µM
EC50 [11]: 0.42 µM

CCCCNc1nc(Cc2c(F)cccc2F)c(C)c(=O)[nH]1
EC50 [8]: 0.006 µM
CC50 (MT4 [12]): 70 µM

Cc1c([C@H](C)c2c(F)cccc2F)nc(SC2CCCCC2)[nH]c1=O
CC50 at 72 h [5]: > 200 µM
selectivity ratio [13]: > 10000

Cc1cc(C)cc(OCCSc2nc(Cc3c(F)cccc3F)cc(=O)[nH]2)c1
CC50 at 72 h [3]: 90 µM
EC50 [4]: 11.2 µM

Cc1c(Cc2c(F)cccc2F)nc(NC2CCCCC2)[nH]c1=O
EC50 [8]: 0.005 µM
CC50 (MT4 [12]): 200 µM

CC(C)c1c(Cc2ccccc2)nc(SCC(=O)c2ccc(F)cc2)[nH]c1=O
EC50 [9]: 0.078 µM
CC50 (MT4 [10]): 186 µM
EC50 [11]: 32.2 µM

CC(=O)c1ccc(Cn2cc(CSc3nc(Cc4c(Cl)cccc4Cl)c(C)c(=O)[nH]3)nn2)cc1
CC50 (MT4 [14]): 32.5 µM

CCSCSc1nc(=O)c(CC)c(Cc2cccc3ccccc23)[nH]1
EC50 [1, 19]: 2.7 µM

CCCNc1nc(Cc2c(F)cccc2F)c(C)c(=O)[nH]1
EC50 [8]: 0.02 µM
CC50 (MT4 [12]): > 200 µM

CCc1c(Cc2ccccc2)nc(SC(C)CC)[nH]c1=O (stereo unspecified)
EC50 [15]: 0.04 µM

CSCSc1nc(Cc2c(F)cccc2F)cc(=O)[nH]1
CC50 at 72 h [3]: > 200 µM
EC50 [4]: 0.8 µM

CCc1c(Cc2cccc3ccccc23)n(CSC)c(=O)[nH]c1=O
EC50 [1, 19]: 0.37 µM

CCC(C)Sc1nc(Cc2ccccc2)c(C(C)C)c(=O)[nH]1 (stereo unspecified)
EC50 [15]: 0.1 µM

Cc1c(Cc2ccccc2)nc(SCC(=O)c2ccc(F)cc2)[nH]c1=O
EC50 [9]: 0.18 µM
CC50 (MT4 [10]): 275 µM
EC50 [11]: 275 µM

CSCSc1nc(Cc2ccccc2)cc(=O)[nH]1
EC50 [15]: 20 µM

CCc1c(Cc2cccc3ccccc23)[nH]c(SCSC)nc1=O
EC50 [1, 19]: 4.6 µM

CCc1c(Cc2ccccc2)nc(SCC(=O)c2ccc(F)cc2)[nH]c1=O
EC50 [9]: 0.07 µM
CC50 (MT4 [10]): 240 µM
EC50 [11]: 16.3 µM

Cc1c(OP(=O)(N[C@@H](C)C(=O)OC(C)(C)C)Oc2ccccc2)nc(N(C)C)nc1C(C)c1c(F)cccc1F (stereo partly specified)
EC50 ([1]; read-out: EC50): 0.008 µM
EC50 [2]: 1 µM

CCOCn1c(Cc2cccc3ccccc23)c(CC)c(=O)[nH]c1=O
EC50 [1, 19]: 0.05 µM

Cc1c(O)nc(SCC(C)C)nc1C(C)c1c(F)cccc1F (stereo unspecified)
CC50 at 72 h [5]: 200 µM
selectivity ratio [13]: 28600

CC(c1cc(O)nc(SC2CCCCC2)n1)c1c(F)cccc1F (stereo unspecified)
CC50 at 72 h [5]: > 200 µM
selectivity ratio [13]: > 6670

CCCCSc1nc(O)c(C)c(C(C)c2c(F)cccc2F)n1 (stereo unspecified)
CC50 at 72 h [5]: 112 µM
selectivity ratio [13]: 14000

CCC(C)Sc1nc(O)cc(C(C)c2c(F)cccc2F)n1 (stereo unspecified)
CC50 at 72 h [5]: > 200 µM
selectivity ratio [13]: > 6670

Cc1c(O)nc(SC2CCCCC2)nc1C(C)c1c(F)cccc1F (stereo unspecified)
CC50 at 72 h [5]: > 200 µM
selectivity ratio [13]: > 33300

CCC(C)Sc1nc(O)cc(Cc2c(F)cccc2F)n1 (stereo unspecified)
CC50 at 72 h [5]: > 200 µM
selectivity ratio [6]: > 5000
EC50 [7]: 0.04 µM
CC50 (C8166): > 200 µM

Cc1c(C(C)c2c(F)cccc2F)nc(N(C)C)[nH]c1=O (racemic)
EC50 [16]: 0.9 µM
CC50 (MT4 [17]): > 100 µM
EC50 [18]: 0.7 µM
